Results reported in the NIST ThermoML archive (doi:10.1016/j.jct.2016.09.005).

Conditions: Liquid, Brillouin Light Scattering

CC(C)OC(C)C [diisopropyl ether]
Conditions	speed of sound [m/s]
302.38 K, 10000 kPa	1087.1
302.39 K, 4000 kPa	1011.9
302.48 K, 5500 kPa	1029.7
302.8 K, 8500 kPa	1052.4
302.91 K, 2500 kPa	1002.7
302.96 K, 1000 kPa	986.08
303.07 K, 7000 kPa	1037.8
307.45 K, 4000 kPa	987.23
307.61 K, 10000 kPa	1066.1
307.86 K, 5500 kPa	1009.4
307.87 K, 8500 kPa	1038.9
308 K, 1000 kPa	965.01
308.01 K, 7000 kPa	1020.5
308.28 K, 2500 kPa	974.68
312.8 K, 10000 kPa	1051
312.81 K, 8500 kPa	1010.4
312.88 K, 7000 kPa	995.2
312.91 K, 2500 kPa	961.97
312.92 K, 5500 kPa	979.14
313.05 K, 1000 kPa	943.07
313.14 K, 4000 kPa	969.4
317.72 K, 10000 kPa	1030.2
318.01 K, 5500 kPa	968.08
318.11 K, 1000 kPa	924.03
318.13 K, 8500 kPa	996.14
318.14 K, 2500 kPa	928.92
318.38 K, 7000 kPa	974.91
318.49 K, 4000 kPa	951.1
322.82 K, 10000 kPa	1007.1
323.15 K, 7000 kPa	960.56
323.3 K, 8500 kPa	972.88
323.31 K, 2500 kPa	912.04
323.5 K, 5500 kPa	943.6
323.62 K, 1000 kPa	901.5
323.71 K, 4000 kPa	924.8
327.56 K, 10000 kPa	994.72
327.75 K, 8500 kPa	964.89
327.97 K, 1000 kPa	881.1
328.08 K, 2500 kPa	887.66
328.1 K, 4000 kPa	901.06
328.13 K, 7000 kPa	936.62
328.17 K, 5500 kPa	923.15
332.93 K, 10000 kPa	963.31
332.94 K, 2500 kPa	869.98
333.01 K, 7000 kPa	920.95
333.08 K, 1000 kPa	855
333.25 K, 8500 kPa	943.92
333.31 K, 4000 kPa	888.08
333.57 K, 5500 kPa	897.12
337.63 K, 5500 kPa	882.64
337.69 K, 1000 kPa	846.25
337.75 K, 2500 kPa	857.76
337.85 K, 10000 kPa	946.87
337.89 K, 8500 kPa	917.48
337.93 K, 4000 kPa	867.64
338.11 K, 7000 kPa	896.43
343.33 K, 1000 kPa	819.28
343.57 K, 8500 kPa	904.65
343.67 K, 4000 kPa	845.53
343.79 K, 7000 kPa	878.38
343.82 K, 2500 kPa	827.84
343.88 K, 10000 kPa	923.89
343.97 K, 5500 kPa	864.56
347.31 K, 10000 kPa	915.04
347.41 K, 2500 kPa	807.03
347.59 K, 1000 kPa	802.59
347.69 K, 4000 kPa	832.86
347.76 K, 8500 kPa	887.44
347.81 K, 5500 kPa	843.4
347.81 K, 7000 kPa	867.06
352.94 K, 4000 kPa	804.7
353.38 K, 8500 kPa	862.02
353.45 K, 1000 kPa	775.82
353.59 K, 2500 kPa	792.6
353.6 K, 5500 kPa	819.82
353.71 K, 7000 kPa	845.61
353.81 K, 10000 kPa	893.76
358.06 K, 10000 kPa	870.54
358.52 K, 8500 kPa	846.91
358.55 K, 5500 kPa	807.15
358.76 K, 1000 kPa	755.17
358.93 K, 2500 kPa	760.2
358.96 K, 4000 kPa	782.98
359.03 K, 7000 kPa	821.85
362.67 K, 1000 kPa	737.96
362.78 K, 5500 kPa	786.13
362.9 K, 10000 kPa	855.96
362.95 K, 8500 kPa	828.91
363.08 K, 7000 kPa	809.07
363.21 K, 2500 kPa	747.41
363.41 K, 4000 kPa	767.15
367.56 K, 7000 kPa	793.16
367.57 K, 5500 kPa	769.09
367.78 K, 4000 kPa	751.56
367.82 K, 8500 kPa	809.14
367.96 K, 10000 kPa	835.29
368.03 K, 1000 kPa	715.17
368.26 K, 2500 kPa	726.3
372.68 K, 10000 kPa	816.27
372.8 K, 7000 kPa	771.64
373.15 K, 5500 kPa	753.88
373.21 K, 8500 kPa	788.43
373.29 K, 2500 kPa	712.12
373.37 K, 4000 kPa	726.56
373.57 K, 1000 kPa	697.04
377.41 K, 1000 kPa	679.66
377.54 K, 7000 kPa	749.64
377.85 K, 4000 kPa	712.4
377.85 K, 5500 kPa	728.98
377.97 K, 8500 kPa	770.84
378.05 K, 2500 kPa	690.57
378.3 K, 10000 kPa	803.55
382.72 K, 1000 kPa	654.9
382.77 K, 7000 kPa	734.01
382.78 K, 10000 kPa	787
382.83 K, 5500 kPa	710.48
382.88 K, 8500 kPa	754.35
383.06 K, 2500 kPa	665.89
383.26 K, 4000 kPa	691.26
387.78 K, 4000 kPa	674.22
388 K, 7000 kPa	713.08
388.09 K, 5500 kPa	694.59
388.3 K, 8500 kPa	735.65
388.31 K, 2500 kPa	653.57
388.68 K, 1000 kPa	634.3
388.86 K, 10000 kPa	760.66
392.26 K, 2500 kPa	635.1
392.28 K, 5500 kPa	675.48
392.33 K, 7000 kPa	701.13
392.5 K, 4000 kPa	658.79
392.65 K, 10000 kPa	747.04
392.79 K, 8500 kPa	722.68
393.19 K, 1000 kPa	615.78
397.81 K, 4000 kPa	632.66
397.95 K, 2500 kPa	613.31
398.22 K, 5500 kPa	653.67
398.25 K, 1000 kPa	589.15
398.32 K, 8500 kPa	702.44
398.37 K, 7000 kPa	674.76
398.9 K, 10000 kPa	728.83
402.67 K, 7000 kPa	662.53
402.77 K, 5500 kPa	638.47
402.88 K, 2500 kPa	590.27
403.23 K, 8500 kPa	683.98
403.4 K, 4000 kPa	612.03
403.45 K, 1000 kPa	570.56
403.45 K, 10000 kPa	709.11
407.64 K, 5500 kPa	623.08
407.75 K, 10000 kPa	693.65
408.1 K, 7000 kPa	642.44
408.23 K, 8500 kPa	667.12
408.31 K, 4000 kPa	592.12
408.37 K, 2500 kPa	571.15
408.65 K, 1000 kPa	544.68
412.43 K, 2500 kPa	550.12
412.43 K, 5500 kPa	606.9
412.66 K, 1000 kPa	530.21
412.7 K, 4000 kPa	576.58
412.83 K, 10000 kPa	681.56
412.95 K, 8500 kPa	646.94
413.28 K, 7000 kPa	622.07
418.22 K, 2500 kPa	532.67
418.42 K, 8500 kPa	627.35
418.54 K, 5500 kPa	583.39
418.59 K, 10000 kPa	659.95
418.87 K, 7000 kPa	603.43
418.91 K, 4000 kPa	554.62
419.01 K, 1000 kPa	502.48
423.21 K, 1000 kPa	482.17
423.5 K, 4000 kPa	536.96
423.62 K, 8500 kPa	613.79
423.75 K, 7000 kPa	590.42
423.79 K, 5500 kPa	567.31
423.9 K, 10000 kPa	640.34
424.09 K, 2500 kPa	502.49
427.41 K, 7000 kPa	578.56
427.66 K, 1000 kPa	460.04
427.92 K, 8500 kPa	597.25
428.03 K, 4000 kPa	520.63
428.26 K, 2500 kPa	490.5
428.45 K, 5500 kPa	546.98
428.53 K, 10000 kPa	625.16
432.35 K, 10000 kPa	618.58
432.63 K, 5500 kPa	529.89
432.77 K, 8500 kPa	581.79
432.83 K, 7000 kPa	558.11

Conditions	speed of sound [m/s]
303.08 K	986.38
318.27 K	915.66
333.62 K	852.5
347.96 K	790.74
362.87 K	731.21
378.14 K	662.26
393.15 K	593.47
402.97 K	552.35
412.75 K	514.15
422.75 K	469.11
432.74 K	426.77
